Measurements taken from ChEMBL document CHEMBL1201862, “PubChem BioAssay data set” (2004).
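Cells were grown in 96-well plates and exposed to each compound for 48 hours at five concentrations; endpoints were interpolated linearly between bracketing concentrations, or set to the highest concentration if not reached. Abbreviation: GI50, concentration required for 50% inhibition of growth.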 Activity calls are given as the source filed them. Rule as the data show it: active = GI50 up to about 1.1 µM and inactive = higher.

Assays:
Assay in all cases: inhibition of tumour cell growth, NCI panel, 48 h
Malme-3M = test system: Malme-3M
SR = test system: SR
NCI/ADR-RES = test system: NCI/ADR-RES
KM12 = test system: KM12
UACC-257 = test system: UACC-257
NCI-H522 = test system: NCI-H522
K562 = test system: K562
M14 = test system: M14
SF-295 = test system: SF-295
DU-145 = test system: DU-145
A498 = test system: A498
OVCAR-8 = test system: OVCAR-8
OVCAR-5 = test system: OVCAR-5
OVCAR-3 = test system: OVCAR-3
TK-10 = test system: TK-10
SNB-19 = test system: SNB-19
HCT-15 = test system: HCT-15
MCF7 = test system: MCF7
RXF 393 = test system: RXF 393

Row | SMILES | GI50 (Malme-3M) | GI50 (SR) | GI50 (NCI/ADR-RES) | GI50 (KM12) | GI50 (UACC-257) | GI50 (NCI-H522) | GI50 (K562) | GI50 (M14) | GI50 (SF-295) | GI50 (DU-145) | GI50 (A498) | GI50 (OVCAR-8) | GI50 (OVCAR-5) | GI50 (OVCAR-3) | GI50 (TK-10) | GI50 (SNB-19) | GI50 (HCT-15) [µM] | GI50 (MCF7) | GI50 (RXF 393)
1 | COc1ccc(OCc2ccc3nc(-c4ccccc4)c(Cl)nc3c2)cc1 | 12.9 µM (inactive) | 28.2 µM (inactive) | 40.3 µM (inactive) | > 100 µM (inactive) | > 100 µM (inactive) | 10.7 µM (inactive) | 0.0889 µM (active) | 33.9 µM (inactive) | 21.7 µM (inactive) | > 100 µM (inactive) | 26.4 µM (inactive) | 44.7 µM (inactive) | 32.1 µM (inactive) | 84.3 µM (inactive) | 17.7 µM (inactive) | 26.5 µM (inactive) | 50.7 | 37.6 µM (inactive) | –
2 | Cn1c(-c2cccc(N)c2)[n+](C)c2ccccc21 | > 100 µM (inactive) | > 100 µM (inactive) | > 100 µM (inactive) | > 100 µM (inactive) | > 100 µM (inactive) | – | > 100 µM (inactive) | > 100 µM (inactive) | > 100 µM (inactive) | > 100 µM (inactive) | 22.4 µM (inactive) | > 100 µM (inactive) | > 100 µM (inactive) | > 100 µM (inactive) | > 100 µM (inactive) | 60.3 µM (inactive) | > 100 | > 100 µM (inactive) | > 100 µM (inactive)
3 | CN1CCc2c(sc3nc(S)nc(S)c23)C1 | > 100 µM (inactive) | > 100 µM (inactive) | > 100 µM (inactive) | > 100 µM (inactive) | > 100 µM (inactive) | > 100 µM (inactive) | > 100 µM (inactive) | > 100 µM (inactive) | > 100 µM (inactive) | > 100 µM (inactive) | – | > 100 µM (inactive) | > 100 µM (inactive) | > 100 µM (inactive) | > 100 µM (inactive) | > 100 µM (inactive) | > 100 | > 100 µM (inactive) | > 100 µM (inactive)
4 | COc1cc(C2NCCC(c3ccccc3)(c3ccccc3)N2)cc(OC)c1OC (centres undefined) | 19.1 µM (inactive) | 26.4 µM (inactive) | > 100 µM (inactive) | 12.6 µM (inactive) | 18.2 µM (inactive) | – | – | 11.7 µM (inactive) | 7.1 µM (inactive) | 97.3 µM (inactive) | 18.7 µM (inactive) | 60.4 µM (inactive) | – | – | 9.31 µM (inactive) | 55.7 µM (inactive) | 38.5 | 20.1 µM (inactive) | 42.7 µM (inactive)
5 | CS(C)(=O)=N/C=C\C(=O)C(Cl)(Cl)Cl | > 100 µM (inactive) | 58.7 µM (inactive) | > 100 µM (inactive) | > 100 µM (inactive) | > 100 µM (inactive) | 36.1 µM (inactive) | > 100 µM (inactive) | > 100 µM (inactive) | > 100 µM (inactive) | > 100 µM (inactive) | – | > 100 µM (inactive) | > 100 µM (inactive) | > 100 µM (inactive) | > 100 µM (inactive) | > 100 µM (inactive) | > 100 | > 100 µM (inactive) | > 100 µM (inactive)
6 | CC(=O)OC1CC2c3cccc4c3C(CC2N(C)C1=O)CN4C(=O)c1ccccc1 (centres undefined) | – | 22.5 µM (inactive) | 20.6 µM (inactive) | 21.3 µM (inactive) | 20.5 µM (inactive) | 4.24 µM (inactive) | 27.5 µM (inactive) | 22.1 µM (inactive) | 23.2 µM (inactive) | 16.6 µM (inactive) | 21.5 µM (inactive) | 16.4 µM (inactive) | 32.4 µM (inactive) | 13.8 µM (inactive) | 29.8 µM (inactive) | 30.3 µM (inactive) | 14.5 | 23.1 µM (inactive) | –
